Reference: patent publication US6486136B1, “Combinations comprising VX478, zidovudine and/or 1592U89 for use in the treatment of HIV” (SmithKline Beecham Corporation, priority 1996, dated 2002)
Where two headings read alike, the source gives them in different places.

Test system: HIV-1 Strain IIIB
Experiment: Double combination dose response matrices in MT2-cells infected with HIV-1 Strain IIIB (MacSynergy II / Greco analysis)
Type: cell-based
Conditions: Greco model estimate; for EC50: MT2-cells, HIV-1 IIIB, medium with 10% fetal bovine serum plus α1 acid glycoprotein (1 mg/ml) and albumin (40 mg/ml)
Method: Triplicate in vitro dose response matrices were prepared using MT2-cells infected with HIV-1 Strain IIIB. In order to account for the effects of protein binding, tissue culture medium with 10% fetal bovine serum was supplemented with the human serum proteins α1, acid glycoprotein (1 mg/ml) and albumin (40 mg/ml). The 3-D drug interaction surface for 1592U89 and 141W94 was constructed using the program MacSynergy II. As analyzed relative to a Bliss Independence null reference model, this combination was synergistic with volumes of synergy exceeding 100 (99% confidence). Analysis of the data set with a fully parametric form of an equation for the quantitation of drug interaction developed by Greco et al. also indicated synergy. The parameters, with 95% confidence intervals are shown below: EC50 is the half maximal response concentration. “m” is the slope parameter. Alpha is the synergy parameter.

EC50 (Human immunodeficiency virus 1, read-out: EC50,141w) [nM]	Compound	m141w (slope parameter) (same matrix)	EC50 (read-out: EC50,1592u) [nM]	m1592u (slope parameter) (same matrix)
394	CC(C)CN(C[C@@H](O)[C@H](Cc1ccccc1)NC(=O)O[C@H]1CCOC1)S(=O)(=O)c1ccc(N)cc1 (relative stereo) [141W94, 3S-[3R*(1R*,2S*)]-[3-[[(4-aminophenyl)sulphonyl](2-methylpropyl)-amino]-2-hydroxy-1-phenylmethyl)propyl]carbamic acid, tetrahydro-3-furanyl ester]	2.20		
	Nc1nc(NC2CC2)c2ncn([C@H]3C=C[C@@H](CO)C3)c2n1 (relative stereo) [1592U89, (1S,4R)-cis-4-[2-amino-6-(cyclopropylamino)-9H-purin-9-yl]-2-cyclopentene-1-methanol]		626	1.60
